In the experiment the target is T1, human Mnk2a (Homo sapiens, UniProt Q9HBH9).
T1 construct: made in house; host or cells: E. coli BL21 (vector pGEX-4T1)
The experiment in a line: Mnk2a in vitro kinase assay (indirect fluorescence polarization). In kind it is biochemical. The following applies: GST-Mnk2a pre-activated with ERK2, 20 μM ATP, 30 μM substrate peptide; read-out: MNK2 IC50. In outline: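 Indirect competitive fluorescence polarization: kinase-generated phospho-product displaces a fluorophore-labelled phospho-peptide from a phospho-specific antibody. Enzyme is N-terminal GST-Mnk2a from E. coli, activated with pre-activated ERK2 and 50 μM ATP; substrate is an amidated 12-mer peptide around eIF4E Ser209.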

T1 sequence (Q9HBH9 whole entry): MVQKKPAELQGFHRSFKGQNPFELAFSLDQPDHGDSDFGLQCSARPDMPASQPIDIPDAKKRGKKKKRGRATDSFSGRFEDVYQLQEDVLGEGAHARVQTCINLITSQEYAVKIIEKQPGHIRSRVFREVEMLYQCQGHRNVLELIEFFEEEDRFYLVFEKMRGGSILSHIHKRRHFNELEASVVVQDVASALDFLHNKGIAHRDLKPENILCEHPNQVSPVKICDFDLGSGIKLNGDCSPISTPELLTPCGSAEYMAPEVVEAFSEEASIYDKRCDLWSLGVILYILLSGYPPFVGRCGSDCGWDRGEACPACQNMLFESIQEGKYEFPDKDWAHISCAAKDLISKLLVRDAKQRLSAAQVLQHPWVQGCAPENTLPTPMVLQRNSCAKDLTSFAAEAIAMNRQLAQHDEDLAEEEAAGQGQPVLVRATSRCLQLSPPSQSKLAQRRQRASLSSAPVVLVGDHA

In the case of `CSCCNC(=O)c1sc2ncnc(Nc3ccc(F)cc3OC3CCOCC3)c2c1C` [Example 234], the IC50 – broadly, the concentration needed to halve the response being measured – is 90 nM.

For the compound `Cc1c(C(=O)NCCc2ccc(O)cc2)sc2ncnc(Nc3ccc(F)cc3OC3CCCNC3)c12` (stereo not drawn) [Example 46], the IC50 worked out at 15 nM.

`Cc1c(C(=O)NCCNc2ccccc2)sc2ncnc(Nc3ccc(F)cc3OC3CCCNC3)c12` (stereo not drawn) [Example 43]: the half-maximal inhibitory concentration (IC50) was determined as 56 nM.

In the case of `Cc1c(C(N)=O)sc2ncnc(Nc3cccnc3O[C@@H]3CCOC3)c12` [Example 267, 5-Methyl-4-{2-[(R)-(tetrahydro-furan-3-yl)oxy]-pyridin-3-ylamino}-thieno[2,3-d]pyrimidine-6-carboxylic acid amide], the IC50 is 36 nM.

For `CCN(CC)CCCNC(=O)c1sc2ncnc(Nc3ccc(F)cc3OC3CCOCC3)c2c1C` [Example 223], the concentration for half-maximal inhibition (IC50) is 2290 nM.

For `Cc1c(C(=O)Nc2ccn(C)c(=O)n2)sc2ncnc(Nc3ccc(F)cc3OC3CCOCC3)c12` [Example 247], the IC50 turned out to be 44 nM.

On to `Cc1c(C(=O)NCC2CN(C)CCO2)sc2ncnc(Nc3ccc(F)cc3O[C@@H]3CCOC3)c12` (stereo partly drawn) [Example 105], for which the half-inhibitory concentration (IC50) was 20 nM.

On to `Cc1c(C(=O)NCc2ccccn2)sc2ncnc(Nc3ccc(F)cc3OC3CCOCC3)c12` [Example 219], for which the IC50 turned out to be 33 nM.

As to `CCNC(=O)c1sc2ncnc(Nc3ccc(F)cc3OC3CCOCC3)c2c1C` [Example 227], the IC50 is 47 nM.

In the case of `Cc1c(C(=O)NCC2CNCCO2)sc2ncnc(Nc3ccc(F)cc3OC3CCOCC3)c12` (stereo not drawn) [Example 127], the IC50 was determined as 17 nM.

As to `Cc1c(C(=O)N[C@H]2CCC[C@@H]2O)sc2ncnc(Nc3ccc(F)cc3OC3CCOCC3)c12` [Example 254], the IC50 is 42 nM.

Turning to `CSCCCNC(=O)c1sc2ncnc(Nc3ccc(F)cc3OC3CCOCC3)c2c1C` [Example 237], the IC50 was 36 nM.

In the case of `Cc1c(C(=O)NCc2ncco2)sc2ncnc(Nc3ccc(F)cc3OC3CCOCC3)c12` [Example 187], the IC50 was determined as 27 nM.

Turning to `Cc1c(C(=O)NCCO)sc2ncnc(Nc3cccnc3O[C@@H]3CCCOC3)c12` [Example 260, 5-Methyl-4-{2-[(R)-(tetrahydro-pyran-3-yl)oxy]-pyridin-3-ylamino}-thieno[2,3-d]pyrimidine-6-carboxylic acid (2-hydroxy-ethyl)-amide], the half-maximal inhibitory concentration (IC50) amounted to 39 nM.

Take `Cc1c(C(=O)N[C@@H]2CC[C@H](N)C2)sc2ncnc(Nc3ccc(F)cc3OC3CCOCC3)c12` [Example 142]: the IC50 came to 38 nM.

Regarding `Cc1c(C(N)=O)sc2ncnc(Nc3ccc(F)cc3O[C@@H]3CN[C@H](CO)C3)c12` [Example 115, 4-[4-Fluoro-2-((3S,5S)-5-hydroxymethyl-pyrrolidin-3-yloxy)-phenylamino]-5-methyl-thieno[2,3-d]pyrimidine-6-carboxylic acid amide], the IC50 is 100 nM.

As for `Cc1c(C(=O)NCC(C)(C)O)sc2ncnc(Nc3ccc(F)cc3OC3CCCNC3)c12` (stereo not drawn) [Example 49], the half-maximal inhibitory concentration (IC50) was determined as 99 nM.

For the compound `Cc1c(C(=O)NCCCN2CC[C@H](O)C2)sc2ncnc(Nc3ccc(F)cc3OC3CCOCC3)c12` [Example 251], the IC50 came out at 28 nM.

Regarding `Cc1c(C(=O)N[C@H]2CC[C@@H](O)CC2)sc2ncnc(Nc3ccc(F)cc3OC3CCOCC3)c12` [Example 191], the IC50 is 47 nM.

In the case of `Cc1c(C(=O)NCCN2CCNC2=O)sc2ncnc(Nc3ccc(F)cc3OC3CCOCC3)c12` [Example 214], the IC50 was 76 nM.

With `Cc1c(C(=O)N[C@H]2CC[C@H](CO)CC2)sc2ncnc(Nc3ccc(F)cc3OC3CCOCC3)c12` [Example 129], the IC50 turned out to be 32 nM.

Regarding `Cc1c(C(=O)NCc2nccn2C)sc2ncnc(Nc3ccc(F)cc3O[C@H]3CCCNC3)c12` [Example 14], the 50% inhibitory concentration (IC50) was found to be 40 nM.

For the compound `Cc1c(C(N)=O)sc2ncnc(Nc3ccc(F)cc3O[C@H]3CCOC3)c12` [Example 109], the IC50 is 9 nM.

Take `Cc1c(C(=O)NCCOc2ccccc2)sc2ncnc(Nc3ccc(F)cc3OC3CCCNC3)c12` (stereo not drawn) [Example 44]: the IC50 was found to be 64 nM.

For the compound `Cc1cccc(CNC(=O)c2sc3ncnc(Nc4ccc(F)cc4OC4CCCNC4)c3c2C)c1` (stereo not drawn) [Example 33], the half-maximal inhibitory concentration (IC50) worked out at 56 nM.

Regarding `CCN(CC)CC(O)CNC(=O)c1sc2ncnc(Nc3ccc(F)cc3OC3CCOCC3)c2c1C` (stereo not drawn) [Example 248], the IC50 came out at 41 nM.

In the case of `Cc1c(C(=O)NCC2CC2)sc2ncnc(Nc3ccc(F)cc3OC3CCCNC3)c12` (stereo not drawn) [Example 19], the half-inhibitory concentration (IC50) came out at 47 nM.

As for `Cc1c(C(=O)NCCCO)sc2ncnc(Nc3ccc(F)cc3O[C@H]3CCCNC3)c12` [Example 16], the IC50 was 30 nM.

Take `Cc1c(C(=O)N[C@@H]2CCC[C@H]2O)sc2ncnc(Nc3ccc(F)cc3OC3CCOCC3)c12` [Example 255]: the 50% inhibitory concentration (IC50) is 22 nM.

As to `Cc1c(C(=O)NO)sc2ncnc(Nc3ccc(F)cc3OC3CCN(S(C)(=O)=O)C3)c12` (stereo not drawn) [Example 93], the half-inhibitory concentration (IC50) turned out to be 19 nM.

Regarding `Cc1c(C(=O)NCCCN(C)C)sc2ncnc(Nc3ccc(F)cc3O[C@@H]3CCCOC3)c12` [Example 88, 4-{4-Fluoro-2-[(R)-(tetrahydro-pyran-3-yl)oxy]-phenylamino}-5-methyl-thieno[2,3-d]pyrimidine-6-carboxylic acid (3-dimethylamino-propyl)-amide], the half-inhibitory concentration (IC50) was found to be 22 nM.

On to `Cc1c(C(=O)NC2CCCC(O)C2)sc2ncnc(Nc3ccc(F)cc3OC3CCOCC3)c12` (stereo not drawn) [Example 192], for which the IC50 was determined as 42 nM.

On to `Cc1c(C(=O)NCc2ccco2)sc2ncnc(Nc3ccc(F)cc3OC3CCCNC3)c12` (stereo not drawn) [Example 22], for which the IC50 was determined as 26 nM.

Consider `Cc1c(C(=O)NCc2cccs2)sc2ncnc(Nc3ccc(F)cc3OC3CCCNC3)c12` (stereo not drawn) [Example 30], for which the IC50 came out at 34 nM.

Consider `Cc1c(C(=O)NC2CC2)sc2ncnc(Nc3ccc(F)cc3O[C@H]3CCCNC3)c12` [Example 17], for which the IC50 was 30 nM.

On to `Cc1c(C(=O)NCc2cccc3ccccc23)sc2ncnc(Nc3ccc(F)cc3OC3CCCNC3)c12` (stereo not drawn) [Example 58], for which the half-inhibitory concentration (IC50) was found to be 64 nM.

In the case of `Cc1c(C(=O)NCC2(O)CCCC2)sc2ncnc(Nc3ccc(F)cc3OC3CCOCC3)c12` [Example 203], the IC50 worked out at 51 nM.

With `CC(=O)NCCCNC(=O)c1sc2ncnc(Nc3ccc(F)cc3OC3CCOCC3)c2c1C` [Example 130], the 50% inhibitory concentration (IC50) stood at 36 nM.

Turning to `Cc1c(C(=O)N[C@H]2CC[C@@](C)(O)CC2)sc2ncnc(Nc3ccc(F)cc3OC3CCOCC3)c12` [Example 170], the concentration for half-maximal inhibition (IC50) was found to be 125 nM.

Turning to `Cc1c(C(N)=O)sc2ncnc(Nc3ccc(F)cc3O[C@H]3CCCN(CCC#N)C3)c12` [Example 3], the half-maximal inhibitory concentration (IC50) turned out to be 120 nM.

Turning to `Cc1c(C(=O)NCCCN(C)C)sc2ncnc(Nc3cccnc3O[C@@H]3CCCOC3)c12` [Example 265], the half-inhibitory concentration (IC50) amounted to 34 nM.

Take `COCCONC(=O)c1sc2ncnc(Nc3ccc(F)cc3OC3CCOCC3)c2c1C` [Example 245]: the IC50 was determined as 39 nM.

Turning to `Cc1c(C(=O)NS(C)(=O)=O)sc2ncnc(Nc3ccc(F)cc3O[C@@H]3CCOC3)c12` [Example 101, N-(4-{4-Fluoro-2-[(R)-(tetrahydro-furan-3-yl)oxy]-phenylamino}-5-methyl-thieno[2,3-d]pyrimidine-6-carbonyl)-methanesulfonamide], the IC50 was 11 nM.

For `Cc1c(C(=O)NCC(=O)c2ccccc2)sc2ncnc(Nc3ccc(F)cc3OC3CCCNC3)c12` (stereo not drawn) [Example 42], the concentration for half-maximal inhibition (IC50) came out at 41 nM.

As for `Cc1c(C(N)=O)sc2ncnc(Nc3ccc(F)cc3O[C@H]3CCCN(Cc4ncon4)C3)c12` [Example 4], the IC50 was 110 nM.

(Values after patent publication US8648068B2, “Heterocycloalkyl-containing thienopyrimidines for pharmaceutical compositions” (Boehringer Ingelheim International GmbH, priority 2010, dated 2014).)
